Source: patent US20090069417A1, “CAROTENOID OXIDATION PRODUCTS AS CHEMOPREVENTIVE AND CHEMOTHERAPEUTIC AGENTS” (priority 2005, published 2009)

Assays:
[1] = test system: HL-60 human promyelocytic leukemia cells; conditions: HL-60 cells; cited from earlier work
[2] = test system: antioxidant response element (ARE); assay: ARE reporter gene (luciferase) assay, transient transfection; type: cell-based, human; conditions: FIG. 1, mean of 3-6 experiments, expressed as ratio to stimulation obtained with tBHQ, compared in words
Source text: ARE reporter constructs were provided by Dr. J. J. Gipp (University of Wisconsin Medical School, Madison, Wis.; Ref 18). NQO1hARE-tk-luc and GCShARE4-tk-luc contain sequences of the active response elements from the promoters of human NQO1 and GCS heavy subunit, respectively. GCShARE4m-tk-luc, a non-active mutant form of the latter construct, contains a single base mutation in the relevant sequence.
Cell transfection and reporter gene assays were generally carried out as follows. Some variations may be adopted for different cell lines: Cells were transfected using TFx-50 reagent (Promega, Madison, Wis.) with ca. 0.07 μg of DNA containing 0.05 μg of reporter plasmid and 0.02 μg of Renilla luciferase expression vector (P-RL-null vector, Promega) as an internal standard. For this purpose, cells were seeded in 24-well plates (100,000 cells per well). After 1 day, cells were rinsed twice with the appropriate culture medium without serum, followed by the addition of 0.2 mL of medium containing DNA and TFx-50 reagent at a charge ratio of 1:3. The cells were then incubated for 30 minutes at 37° C. in 95% air/5% CO2. Four hundred microliters of medium containing 3% charcoal-stripped delipidated FCS were added and incubation continued for 8 hours. This was then replaced by medium supplemented with 3% delipidated FCS and the test compounds and cells were incubated for another 16 hours. Cell extracts were prepared for luciferase reporter assay (Dual Luciferase Reporter Assay System, Promega) according to the manufacturer's instructions.
The effects of lycopene and several lycopene derivatives on antioxidant response element (ARE) induction were tested in all of the cancer cell lines mentioned above. The assay employed measures the transcriptional activity of the antioxidant response element which is activated by the Nrf2 transcription factor, and its activation by carotenoids and their derivatives. Parts of a promoter of the genes of interest were fused to a luciferase reporter gene as described in Materials and Methods. The constructs were transfected into the cells. Cells were incubated with carotenoids or derivatives and activation of transcription was measured.
The results are depicted in FIG. 1 as the mean of 3-6 experiments. The standard errors of the mean (SEs) (not shown) were not higher than 10% of the mean. In order to decrease the variation between experiments, the results are expressed as the ratio of stimulation obtained with each specific derivative to that obtained with tBHQ (a well known positive control in this system).

MCF-7 and T47D cells = assay: Cell proliferation, [3H]thymidine incorporation, mammary cancer cells (FIG. 2B); type: cell-based, human; conditions: compared with lycopene
Experimental: MCF-7, human mammary cancer cells were purchased from American Type Culture Collection (Rockwell, Md.). MCF-7 cells were grown in DMEM containing penicillin (100 units/mL), streptomycin (0.1 mg/mL), nystatin (12.5 Ag/mL), 0.6 μg/mL insulin, and 10% FCS. T47D, human mammary cancer cell line, were provided by Dr. Yafa Keidar (Tel-Aviv University, Israel) and were grown in DMEM medium. LNCaP human prostate cancer cells were purchased from American Type Culture Collection (Rockwell, Md.) and were grown on RPMI medium. The medium contained penicillin (100 U/ml), streptomycin (0.1 mg/ml) nystatin (12.5 μg/ml), and 10% fetal calf serum (FCS), and 6 μg/ml insulin. Prior to each experiment, the cells were depleted of steroid hormones and maintained for 3-5 days in phenol red-free DMEM supplemented with 10% DCC FCS.
MCF-7, LNCaP and T47D cells were seeded in 96-well plates. After one day, the medium was replaced with one containing the various materials. In each day of the experiment one plate was used for the thymidine incorporation assay. Thymidine incorporation was determined as follows: 2.5 μCi/well of [^3H]thymidine (specific radioactivity 5 mCi/mmol) containing cold thymidine (100 μM) was added and the plate were incubated (37° C.) for 1 hr (MCF-7 cells) or for 3 hr (LNCaP, T47D cells). […] Radioactivity was determined by a radioactive image analyzer (BAS 1000, Fuji, Japan). […]

[3] = test system: antioxidant response element (ARE) in MCF-7 and T47D cells; assay: ARE induction in human breast cancer cell lines (FIG. 2A); type: cell-based; conditions: compared with lycopene
Experimental: Cell transfection and reporter gene assays were generally carried out as follows. Some variations may be adopted for different cell lines: Cells were transfected using TFx-50 reagent (Promega, Madison, Wis.) with ca. 0.07 μg of DNA containing 0.05 μg of reporter plasmid and 0.02 μg of Renilla luciferase expression vector (P-RL-null vector, Promega) as an internal standard. For this purpose, cells were seeded in 24-well plates (100,000 cells per well). After 1 day, cells were rinsed twice with the appropriate culture medium without serum, followed by the addition of 0.2 mL of medium containing DNA and TFx-50 reagent at a charge ratio of 1:3. The cells were then incubated for 30 minutes at 37° C. in 95% air/5% CO2. Four hundred microliters of medium containing 3% charcoal-stripped delipidated FCS were added and incubation continued for 8 hours. This was then replaced by medium supplemented with 3% delipidated FCS and the test compounds and cells were incubated for another 16 hours. Cell extracts were prepared for luciferase reporter assay (Dual Luciferase Reporter Assay System, Promega) according to the manufacturer's instructions. […]

[4] = test system: reporter genes fused with ARE sequences; conditions: transiently transfected cancer cells; cited from earlier work
[5] = test system: mammary, endometrial, lung and leukemic cancer cell growth; conditions: lung and leukemic cancer cells, dose-dependent, read-out: IC50, inhibition of cancer cell growth; cited from earlier work
[6] = test system: WB-F344 rat liver epithelial cells; conditions: cited from earlier work

For `CC(=O)/C=C/C=C(C)/C=C/C=O` [(E,E,E)-4-methyl-8-oxo-2,4,6-nonatrienal], the induction of apoptosis [1] is listed as “induces apoptosis”.
For diapo-8′,15-lycopendial, the “stimulation of transcription of ARE reporter genes” value (“stimulation … of ARE reporter genes” for short) [2] was “more active than the parent molecule lycopene” and the “stimulation … of ARE reporter genes” value ([2]; listed as 8′15) was “also active”.
With `C\C(C=O)=C/C=C/C(C)=C/C=C/C=C(C)/C=C/C=C(\C)C=O` [8,8′, diapo-8,8′-lycopendial] the “inhibition of cell proliferation” value (MCF-7 and T47D cells) was “less active”, the ARE induction [3] was “less active” and the “stimulation … of ARE reporter genes” value [2] was “much less active”.
For `CC(C)=CCC/C(C)=C/C=C/C(C)=C/C=C/C(C)=C/C=C/C=C(C)/C=C/C=C(C)/C=C/C=C(\C)CCC=C(C)C` [lycopene, Lycopene], the “transactivation of ARE reporter genes” value [4] is listed as “capable of transactivating the expression of reporter genes fused with ARE sequences” and the IC50 [5] is listed as roughly 2000 nM.
In the case of `CC(/C=C/C=O)=C\C=C\C=C(C)\C=C\C=O` [10,10′, diapo-10,10′-lycopendial], the “inhibition of cell proliferation” value (MCF-7 and T47D cells) is reported as “more active than lycopene”, the ARE induction [3] is reported as “more active than lycopene” and the “stimulation … of ARE reporter genes” value [2] is reported as “more active than the parent molecule lycopene”. The “stimulation … of ARE reporter genes” value ([2]; listed as 10′10) was “most active”.
In the case of `C\C(C=O)=C/C=C/C=C(C)/C=C/C=C(C)/C=C/C=O` [2,7,11-trimethyl-tetradecahexaene-1,14-dial], the “stimulation of gap junctional communication (GJC)” value [6] is listed as “stimulates gap junctional communication”.
In the case of `C\C(C=O)=C/C=C/C=C(\C)C=O` [12,12′, diapo-12,12′-lycopendial], the “stimulation … of ARE reporter genes” value [2] is reported as “much less active”.
For `C\C(C=O)=C/C=C/C=C(C)/C=C/C=C(\C)C=O` [8′,12, diapo-8′,12-lycopendial], the “stimulation … of ARE reporter genes” value [2] was “more active than the parent molecule lycopene” and the “stimulation … of ARE reporter genes” value ([2]; listed as 8′12) was “most active”.
